From patent US12662707B2, “MYC amplification drives resistance to pan-RAS inhibitors in pancreatic cancer” (The Trustees of Columbia University in the City of New York, priority 2024, dated 2026) come the findings set out here.

Each structure is given as a SMILES string.

The test system of data set [1] is autochthonous KPC pancreatic tumors. Kind of data set: One-week study in KPC mice. The data set is classed as in vivo, mouse. To be noted: 50 mg/kg q.o.d. As for the experimental part: Tumor formation in KPC mice was monitored by bi-weekly palpation. […] Treatments were performed every other day via oral gavage for 1 week. […] Following two consecutive ultrasounds, RMC-7977-treated animals were sacrificed either 4 (n=7) or 24 hours (n=4) after last dose and Vehicle-treated animals were sacrificed between 4-24 hours post last dose. Tissue was harvested and preserved as previously described (See Xenograft studies section). Additional group of KPC mice was also treated with a single dose of RMC-7977 (n=10) or Vehicle (n=3) and tissues were harvested at 4 or 24 hours post dose as previously described.

The next data set concerns human PDAC cell lines. Kind of data set: Human cell line proliferation / viability assay. The format is cell-based. Here is the method: 19 PDAC cell lines were tested for sensitivity to RMC-7977 as part of a panel of human cancer cell lines of various histotypes screened at Crown Bioscience. These PDAC cell lines harbored KRASG12D, KRASG12V, KRASG12C, KRASQ61H, and BRAFV487_P492delinsA
mutations. To measure inhibition of cell proliferation, cells were cultured in methylcellulose and treated in triplicates with serial dilutions of RMC-7977 (top concentration of 1 μM) or DMSO dispensed by a Tecan D300e digital dispenser (Tecan Trading AG). Cells were incubated for 120 hours prior to measurement of ATP levels using CellTiter-Glo. Technical triplicates were run for each biological replicate and a total of three biological replicates was done for each cell line. CTG assay readouts were plotted as a function of log molar [inhibitor] and a 4-parameter sigmoidal concentration response model was fitted to the data. Mean±s.d. was plotted for each tested dilution.
PDAC cell lines harboring KRASWT or KRASQ61H were plated at 500-4,000 cells/well in clear, flat-bottomed 96-well plates (Corning) and grown for 24 h prior to adding indicated concentration of RMC-7977 or DMSO using the D300e digital dispenser (Tecan). Following treatment, cells were incubated for additional 3-5 days after which live cells were fluorescently labelled using Calcein AM (20-minute incubation at 500 nM, Thermo Fisher) and counted using the SpectraMax i3X multimode detection platform (Molecular Devices). Experiments were day 0 normalized using an independent culture plate. Growth percentage was calculated by normalizing drug-treated values to DMSO control, which was set to 100%. Four-parameter sigmoidal concentration response models were fitted to the data from 3 or more biological replicates. Mean±s.d. was plotted for each tested dilution.

Data set [2] in a line: Tumor versus blood concentrations, all model systems tested. The format is in vivo. To be noted: BALB/c, C57Bl/6, KPF/FC, mouse, tumor vs whole blood, oral, read-out: Kp (concentration in tumor tissues vs blood). As for the experimental part: (§1) Whole blood, tumor, colon and skin tissue concentrations of RMC-7977 were determined using liquid chromatography-tandem mass spectrometry (LC-MS/MS) methods. […] After thorough mixing and centrifugation, the supernatant was directly analyzed on a Sciex 6500+ triple quadrupole mass spectrometer equipped with an ACQUITY or Shimadzu UPLC system. An ACQUITY UPLC BEH C18 or C4 […] (2.1×50 mm) column was used with gradient elution for compound separation. RMC-7977 and IS (verapamil or terfenadine) were detected by positive electrospray ionization using multiple reaction monitoring (RMC-7977: m/z 865.4/706.4 or m/z 865.3/833.5; verapamil: m/z 455.2/164.9; terfenadine: m/z 472.3/436.4). […] BA analysis on blood and tissue samples from xenograft models was run at Wuxi AppTec. BA analysis on blood and tissue samples from allograft models and GEMM was run at Revolution Medicines.

For data set [3], the system named is CC3+ apoptotic cells, Cyclin A2. Nature of the data set: CC3 and Cyclin A2 IHC in KPF/FC mice (tumor, colon). The data set is classed as in vivo, mouse. As for the experimental part: Tumor formation in KPF/FC (KrasLSL.G12D/+; p53flox/flox; Pdx1-Cre) mice was monitored by bi-weekly palpations until the detection of a mass, which was then confirmed by ultrasound. Tumor-bearing mice were randomized and assigned into groups (n=3/dose/timepoint). Single dose of RMC-7977 was administered orally at 10 mg/kg, 25 mg/kg and 50 mg/kg. The same vehicle formulation was used for the control group. Whole blood and tissue (tumors and colons) were harvested at indicated time points preserved as previously described (See Xenograft studies section).
All tissues were fixed for up to 24 hours using 10% neutral buffered formalin and then moved to 70% ethanol for long term storage. All stainings were performed on 4-μm tissue sections. Sections were deparaffinized using a Leica XL ST5010 autostainer, after which slides were subjected to heat-activated epitope retrieval. To block endogenous peroxidases, 20 min incubation in 3% H2O2 (Fisher Scientific) was performed. Slides were further blocked in serum for 1 hour, and primary antibodies were added for overnight incubation at 4° C. The next day, slides were washed and incubated with ImmPRESS HRP Horse Anti-Rabbit IgG Polymer Detection Kit (Vector Laboratories, MP-7401) for 30 min. Following incubation, ImmPACT DAB peroxidase (Vector Laboratories, SK-4100) was used to develop the stain and hematoxylin was used as nuclear counterstain. Stained slides were imaged at 40× magnification. Quantitative analyses of IHC images were performed using ImageJ.

Data set [4] in a line: Pharmacokinetics in Capan-1 xenograft model (tumor and blood). The format is in vivo. The settings on record: BALB/c (immune-deficient), mouse, tumor vs whole blood, oral; Capan-1 xenograft tumors; read-out: overall exposure (AUC0-48) in tumors compared to blood. As for the experimental part:
as §1, with “Studies were terminated early if tumor burden reached humane endpoint. Body weights were collected twice a week during the study. Means±s.e.m were plotted in the waterfall plots. For the single-dose pharmacokinetic/pharmacodynamic (PK/PD) study, mice were randomized and assigned into groups (n=3-6/dose/timepoint). […] Sakura, 4583) solution or snap-frozen in LN2 for further analysis. Whole blood was transferred into K2EDTA Microtainer tubes (BD, 365974), incubated for 5 minutes and snap-frozen in LN2. Whole” for “Whole”

`CCn1c(-c2cc(N3CCN(C4CC4)CC3)cnc2[C@H](C)OC)c2c3cc(ccc31)-c1csc(n1)C[C@H](NC(=O)[C@H]1[C@@H]3COC[C@@H]31)C(=O)N1CCC[C@H](N1)C(=O)OCC(C)(C)C2` [RMC-7977]: the “impact on animal weight” value in data set [1] is reported as “little impact”. In data set [1] (KPC, 129S4/SvJae), the tumor response result was “regressions in most tumors”. Besides, in the data set with human PDAC cell lines (KRASQ61H (Pa02C, T3M-4, UM147), 5 days), the “potency in three additional KRASQ61H PDAC lines” value is “low nanomolar potency”. The “sensitivity of KRASWT cell lines and organoids” value in the data set with human PDAC cell lines (KRASWT cell lines and organoids) is given as “wider range of sensitivity”. Also, in the data set with human PDAC cell lines (most human PDAC cell lines, 5 days), the “potency in concentration-response cell viability assays” value was “low nanomolar potency”. In addition, the sensitivity in vitro result in the data set on human PDAC cell lines (two human cell lines, one KRASQ61H, one KRASWT with BRAF ClassII mutation) was “lower sensitivity”. Further, the figures for the Kp in data set [2] and in data set [4] were above 1 and around 3, respectively. Besides, in data set [3] (KPF/FC mice), the “time to full restoration of Cyclin A2 levels in normal colon” value was at most 24 h. The “proliferation (Cyclin A2) in normal colon” value in data set [3] (KPF/FC mice, at 12 hours) is “transient decrease”. Further, in data set [3] (KPF/FC tumors, four hours after a single dose), the “spike in CC3+ apoptotic cells in tumors” value was around 4 fold. In data set [3] (all doses and time points), the “apoptosis in normal tissues” value is recorded as “negligible or absent”.
